Test results reported in patent publication US9255078B2, “Micheliolide derivatives, medicinal composition, producing method and usage thereof” (ACCENDATECH, priority 2010, dated 2016).
Structures can show the parent of a compound that is named as a salt. Where two headings read alike, the source gives them in different places.

Columns and labels:
Assay type in all cases: cell-based
Conditions in all cases: incubated 18 hours, read-out: inhibitory activity against different cancer cells (IC50)
A498 = assay: MTT assay, A498 renal cell carcinoma cell line
Experimental: (§1) A variety of cancer cells are suspended to 2×10^5/mL, and then added into 24-hole Round-bottomed tissue culture plate. After that micheliolide and its derivatives are added, herein a test with one density occupies 5 holes. The resulting suspension are incubated (under 37° C., 5% CO2) for 18 hours to allow the compounds to take effect. A absorbance (A) value is measured by using the method of MTT assay and an enzyme-linked detector under 570 nm wavelength, and then the inhibitory activity of the compounds is concluded.
(§2) In Table 1, HL-60, K562, MCF-7, CNE-1, CNE-2, SW620, A549, HepG2, Ec9706, SGC7901, SW1116, A498, ASPC-1, HT-29, HeLa, GL15, B16F1, T24, SKOV3, SW579, PC-3, represents acute leukemia cell lines, Chronic leukemia cell lines, Breast cancer cell lines, High differentiation nasopharyngeal carcinoma cell line, Poorly differentiated nasopharyngeal carcinoma cell lines, Colorectal cancer cell line, Lung cancer cell lines, Hepatocellular carcinoma cell lines, Esophageal cancer cell line, Gastric cancer cell line, Colon cancer cell line, Renal cell carcinoma cell line, Pancreatic cancer cell line, Colon cancer cell lines, uterine cervical cancer cell lines, Horny man neuroblastoma cell lines, Melanoma cell line, human bladder cancer cell line, ovarian cancer cell lines, thyroid cancer cells, prostate cancer cell lines, respectively.

CNE-2 = assay: MTT assay, CNE-2 poorly differentiated nasopharyngeal carcinoma cell lines
Experimental: as §1, §2

B16F1 = assay: MTT assay, B16F1 melanoma cell line
Experimental: as §1, §2

SW579 = assay: MTT assay, SW579 thyroid cancer cells
Experimental: as §1, §2

ASPC-1 = assay: MTT assay, ASPC-1 pancreatic cancer cell line
Experimental: as §1, §2

GL15 = assay: MTT assay, GL15 neuroblastoma cell lines
Experimental: as §1, §2

CNE-1 = assay: MTT assay, CNE-1 high differentiation nasopharyngeal carcinoma cell line
Experimental: as §1, §2

HepG-2 = assay: MTT assay, HepG-2 hepatocellular carcinoma cell lines
Experimental: as §1, §2

SW620 = assay: MTT assay, SW620 colorectal cancer cell line
Experimental: as §1, §2

MCF-7 = assay: MTT assay, MCF-7 breast cancer cell lines
Experimental: as §1, §2

T24 = assay: MTT assay, T24 human bladder cancer cell line
Experimental: as §1, §2

HeLa = assay: MTT assay, HeLa uterine cervical cancer cell lines
Experimental: as §1, §2

K562 = assay: MTT assay, K562 chronic leukemia cell lines
Experimental: as §1, §2

HT-29 = assay: MTT assay, HT-29 colon cancer cell lines
Experimental: as §1, §2

PC-3 = assay: MTT assay, PC-3 prostate cancer cell lines
Experimental: as §1, §2

Ec9706 = assay: MTT assay, Ec9706 esophageal cancer cell line
Experimental: as §1, §2

SGC7901 = assay: MTT assay, SGC7901 gastric cancer cell line
Experimental: as §1, §2

HL-60 = assay: MTT assay, HL-60 acute leukemia cell lines
Experimental: as §1, §2

A549 = assay: MTT assay, A549 lung cancer cell lines
Experimental: as §1, §2

SKOV3 = assay: MTT assay, SKOV3 ovarian cancer cell lines
Experimental: as §1, §2

SW1116 = assay: MTT assay, SW1116 colon cancer cell line
Experimental: as §1, §2

An IC50 (A498; Homo sapiens, A498, 18 h) of 12.4 nM, an IC50 (CNE-2; Homo sapiens, CNE-2, 18 h) of 16.5 nM and an IC50 (B16F1) of 3.4 nM were found for CC1=C2CC[C@@](C)(O)[C@@H]2[C@H]2OC(=O)[C@@H](CN(C)C)[C@@H]2CC1 [Compound II, 11βH,13-Dihydro, 13-dimethylaminomicheliolide] in this work. It also gave an IC50 (SW579; SW579, 18 h) of 17.3 nM, an IC50 (ASPC-1) of 3.9 nM and an IC50 (GL15) of 12.6 nM. The IC50 (CNE-1) was 11.2 nM, the IC50 (HepG-2) was 4.5 nM and the IC50 (SW620) was 5.8 nM. The IC50 (MCF-7) was 4.6 nM, the IC50 (T24; Homo sapiens, T-24, 18 h) was 14.2 nM and the IC50 (HeLa) was 9.4 nM. The IC50 (K562) was 4.2 nM, the IC50 (HT-29) was 4.8 nM and the IC50 (PC-3) was 8.7 nM. It also gave an IC50 (Ec9706; Homo sapiens, EC9706, 18 h) of 9.2 nM, an IC50 (SGC7901; Homo sapiens, SGC-7901, 18 h) of 14.6 nM and an IC50 (HL-60) of 2.4 nM. For the same compound, the IC50 (A549) was 7.2 nM, the IC50 (SKOV3) was 5.9 nM and the IC50 (SW1116) was 11.5 nM.
An IC50 (A498; Homo sapiens, A498, 18 h) of 5.3 nM, an IC50 (CNE-2; Homo sapiens, CNE-2, 18 h) of 12.4 nM and an IC50 (B16F1; Mus musculus, B16-F1, 18 h) of 13.2 nM were found for C=C1C(=O)O[C@H]2[C@H]1CCC(C)=C1CC[C@@](C)(OC(=O)CC)[C@@H]12 [Compound III, 4-propionylmicheliolide] in this work. For the same compound, the IC50 (SW579; SW579, 18 h) was 22.5 nM, the IC50 (ASPC-1; Homo sapiens, ASPC1, 18 h) was 15.1 nM and the IC50 (GL15; Neuroblastoma cell, 18 h) was 14.3 nM. The IC50 (CNE-1; 18 h) was 5.9 nM, the IC50 (HepG-2; Homo sapiens, HepG2, 18 h) was 15.4 nM and the IC50 (SW620; Homo sapiens, SW-620, 18 h) was 5.6 nM. The IC50 (MCF-7; Homo sapiens, MCF7, 18 h) was 3.4 nM, the IC50 (T24; Homo sapiens, T-24, 18 h) was 13.6 nM and the IC50 (HeLa; Homo sapiens, 18 h) was 17.3 nM. The IC50 (K562; Homo sapiens, K562, 18 h) was 6.7 nM, the IC50 (HT-29; Homo sapiens, HT-29, 18 h) was 9.8 nM and the IC50 (PC-3; Homo sapiens, PC-3, 18 h) was 11.4 nM. It also gave an IC50 (Ec9706; Homo sapiens, EC9706, 18 h) of 7.6 nM, an IC50 (SGC7901; Homo sapiens, SGC-7901, 18 h) of 14.7 nM and an IC50 (HL-60; Homo sapiens, HL-60, 18 h) of 4.5 nM. For the same compound, the IC50 (A549; Homo sapiens, A549, 18 h) was 7.7 nM, the IC50 (SKOV3; Homo sapiens, SK-OV-3, 18 h) was 9.4 nM and the IC50 (SW1116; Homo sapiens, SW 1116, 18 h) was 21.5 nM.
An IC50 (A498; Homo sapiens, A498, 18 h) of 4.3 nM, an IC50 (CNE-2; Homo sapiens, CNE-2, 18 h) of 5.6 nM and an IC50 (B16F1; Mus musculus, B16-F1, 18 h) of 5.2 nM were found for C=C1C(=O)O[C@H]2[C@H]1CC[C@]1(C)O[C@@]13CC[C@@](C)(O)[C@H]23 [Compound IV, 1,10-Epoxymicheliolide] in this work. For the same compound, the IC50 (SW579; SW579, 18 h) was 12.4 nM, the IC50 (ASPC-1; Homo sapiens, ASPC1, 18 h) was 26.4 nM and the IC50 (GL15; Neuroblastoma cell, 18 h) was 21.5 nM. The IC50 (CNE-1; 18 h) was 6.7 nM, the IC50 (HepG-2; Homo sapiens, HepG2, 18 h) was 7.4 nM and the IC50 (SW620; Homo sapiens, SW-620, 18 h) was 3.8 nM. The IC50 (MCF-7; Homo sapiens, MCF7, 18 h) was 8.9 nM, the IC50 (T24; Homo sapiens, T-24, 18 h) was 7.9 nM and the IC50 (HeLa; Homo sapiens, 18 h) was 9.7 nM. For the same compound, the IC50 (K562; Homo sapiens, K562, 18 h) was 9.7 nM, the IC50 (HT-29; Homo sapiens, HT-29, 18 h) was 9.8 nM and the IC50 (PC-3; Homo sapiens, PC-3, 18 h) was 17.2 nM. It also gave an IC50 (Ec9706; Homo sapiens, EC9706, 18 h) of 6.6 nM, an IC50 (SGC7901; Homo sapiens, SGC-7901, 18 h) of 13.4 nM and an IC50 (HL-60; Homo sapiens, HL-60, 18 h) of 5.8 nM. It also gave an IC50 (A549; Homo sapiens, A549, 18 h) of 5.7 nM, an IC50 (SKOV3; Homo sapiens, SK-OV-3, 18 h) of 10.4 nM and an IC50 (SW1116; Homo sapiens, SW 1116, 18 h) of 11.7 nM.
An IC50 (A498; hydrochloride) of 16.3 nM, an IC50 (CNE-2; hydrochloride) of 16.9 nM and an IC50 (B16F1; hydrochloride) of 18.6 nM were found for CC1=C2CC[C@@](C)(O)[C@@H]2[C@H]2OC(=O)[C@@H](CN(C)C)[C@@H]2CC1 [Compound V, 11βH,13-Dihydro, 13-dimethylaminomicheliolide hydrochloride] in this work. For the same compound, the IC50 (SW579; hydrochloride) was 32.6 nM, the IC50 (ASPC-1; hydrochloride) was 33.6 nM and the IC50 (GL15; hydrochloride) was 25.8 nM. The IC50 (CNE-1; hydrochloride) was 22.5 nM, the IC50 (HepG-2; hydrochloride) was 27.9 nM and the IC50 (SW620; hydrochloride) was 13.5 nM. It also gave an IC50 (MCF-7; hydrochloride) of 26.8 nM, an IC50 (T24; hydrochloride) of 22.5 nM and an IC50 (HeLa; hydrochloride) of 33.4 nM. It also gave an IC50 (K562; hydrochloride) of 21.4 nM, an IC50 (HT-29; hydrochloride) of 19.2 nM and an IC50 (PC-3; hydrochloride) of 23.5 nM. It also gave an IC50 (Ec9706; hydrochloride) of 15.7 nM, an IC50 (SGC7901; hydrochloride) of 24.9 nM and an IC50 (HL-60; hydrochloride) of 11.5 nM. The IC50 (A549; hydrochloride) was 18.1 nM, the IC50 (SKOV3; hydrochloride) was 15.4 nM and the IC50 (SW1116; hydrochloride) was 31.2 nM.
